Reference: PMC7047604 (Journal of medicinal chemistry, 2020)
“Also recorded” adds a separate entry of the source.

How the values were obtained:
human DOR [1] = biological target: T1, human DOR (Homo sapiens, UniProt P41143); assay type: binding
human KOR [2] = biological target: T2, human KOR (Homo sapiens, UniProt P41145); assay type: binding
human MOR = human MOR (Homo sapiens, UniProt P35372); assay: biochemical; assay type: biochemical; details: for Emax at 10 µM: read-out: Efficacy (% Stimulation) MOR
Chain of human MOR (P35372 whole entry): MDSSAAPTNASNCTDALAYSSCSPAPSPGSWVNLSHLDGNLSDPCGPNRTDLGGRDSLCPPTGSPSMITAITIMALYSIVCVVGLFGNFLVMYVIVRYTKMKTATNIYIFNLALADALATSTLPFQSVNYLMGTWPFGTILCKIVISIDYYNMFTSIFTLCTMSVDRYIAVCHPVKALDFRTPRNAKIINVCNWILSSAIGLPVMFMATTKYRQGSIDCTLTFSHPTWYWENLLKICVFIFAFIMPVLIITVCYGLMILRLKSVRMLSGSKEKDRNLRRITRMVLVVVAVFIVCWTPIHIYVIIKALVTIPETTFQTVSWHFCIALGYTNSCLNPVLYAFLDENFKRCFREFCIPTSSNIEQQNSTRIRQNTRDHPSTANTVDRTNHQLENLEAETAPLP

human DOR [3] = biological target: T1, human DOR; assay type: biochemical
human KOR [4] = biological target: T2, human KOR; assay type: biochemical
male C57BL/6 mice = details: mouse, in vivo
in vitro = details: mouse, microsomes, pH 7.4, metabolic half-life in MLM, abstract statement

T1 sequence (P41143 whole entry): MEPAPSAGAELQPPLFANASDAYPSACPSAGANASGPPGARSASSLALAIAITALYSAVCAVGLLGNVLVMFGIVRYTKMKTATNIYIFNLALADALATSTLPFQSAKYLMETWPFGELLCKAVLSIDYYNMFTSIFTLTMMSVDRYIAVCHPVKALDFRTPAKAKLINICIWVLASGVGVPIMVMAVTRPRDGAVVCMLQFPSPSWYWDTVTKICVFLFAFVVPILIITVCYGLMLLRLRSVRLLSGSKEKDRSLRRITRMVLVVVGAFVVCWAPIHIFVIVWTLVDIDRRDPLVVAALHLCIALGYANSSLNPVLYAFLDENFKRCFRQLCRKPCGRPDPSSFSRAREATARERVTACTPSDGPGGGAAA
T2 sequence (P41145 whole entry): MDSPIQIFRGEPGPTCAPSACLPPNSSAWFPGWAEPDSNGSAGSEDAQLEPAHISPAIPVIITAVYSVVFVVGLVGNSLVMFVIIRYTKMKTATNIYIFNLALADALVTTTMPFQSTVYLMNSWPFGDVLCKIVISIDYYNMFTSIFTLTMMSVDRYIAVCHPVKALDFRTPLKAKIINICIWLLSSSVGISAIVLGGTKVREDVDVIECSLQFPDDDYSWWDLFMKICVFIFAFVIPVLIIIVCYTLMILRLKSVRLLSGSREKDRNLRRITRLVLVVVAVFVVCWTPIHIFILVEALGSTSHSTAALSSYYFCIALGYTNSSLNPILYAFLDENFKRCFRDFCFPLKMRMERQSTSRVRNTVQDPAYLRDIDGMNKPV

## CCOc1ccc(CN(C)Cc2ccccc2)cc1CNC(=O)[C@@H](N)Cc1c(C)cc(O)cc1C.O=C(O)C(F)(F)F [Compound 20, (S)-1-((5-((benzyl(methyl)amino)methyl)-2-ethoxybenzyl)amino)-3-(4-hydroxy-2,6-dimethylphenyl)-1-oxopropan-2-aminium trifluoroacetate]
Human DOR [1]
  Selectivity MOR:DOR:KOR, DOR term (Ki DOR / Ki MOR): 1:4.0:26
Human KOR [2]
  KOR binding affinity in words: low double-digit
  Selectivity MOR:DOR:KOR, KOR term (Ki KOR / Ki MOR): 1:4.0:26
Human MOR
  Emax at 10 µM: 72.2 ± 6.2%
Human DOR [3]
  Efficacy (% Stimulation) DOR: did not stimulate DOR and DNS
  Potency, EC50 DOR: DNS
Human KOR [4]
  Efficacy (% Stimulation) KOR: DNS
  Potency, EC50 KOR: DNS
Male C57BL/6 mice
  antinociceptive activity in AASA (overall): inactive; also recorded: lacked antinociceptive activity

## CCOc1ccc(CN2Cc3ccccc3C2)cc1CNC(=O)[C@@H](N)Cc1c(C)cc(O)cc1C.O=C(O)C(F)(F)F [Compound 17, (S)-1-((2-ethoxy-5-(isoindolin-2-ylmethyl)benzyl)amino)-3-(4-hydroxy-2,6-dimethylphenyl)-1-oxopropan-2-aminium trifluoroacetate]
Human MOR
  MOR agonist character in words: full agonists
  Emax at 10 µM: 98.1 ± 6.7%
Human DOR [3]
  Efficacy (% Stimulation) DOR: 35.7±2.8%
  partial DOR agonist, potency in words: moderate
Human KOR [4]
  Efficacy (% Stimulation) KOR: DNS
  Potency, EC50 KOR: DNS
Male C57BL/6 mice
  antinociceptive activity in AASA at 1 mg/kg: active antinociceptive agents

## CCOc1ccc(C(=O)N2Cc3ccccc3C2)cc1CNC(=O)[C@@H](N)Cc1c(C)cc(O)cc1C.O=C(O)C(F)(F)F [Compound 22, (S)-1-((2-ethoxy-5-(isoindoline-2-carbonyl)benzyl)amino)-3-(4-hydroxy-2,6-dimethylphenyl)-1-oxopropan-2-aminium trifluoroacetate]
Human DOR [1]
  Selectivity MOR:DOR:KOR, DOR term (Ki DOR / Ki MOR): 1:20:900
Human MOR
  Emax at 10 µM: 27.8 ± 0.7%
Human DOR [3]
  Efficacy (% Stimulation) DOR: did not stimulate DOR and DNS
  Potency, EC50 DOR: DNS
Human KOR [4]
  Efficacy (% Stimulation) KOR: DNS
  Potency, EC50 KOR: DNS

## CCOc1ccc(CN2CCOCC2)cc1CNC(=O)[C@@H](N)Cc1c(C)cc(O)cc1C.O=C(O)C(F)(F)F [Compound 16, (S)-1-((2-ethoxy-5-(morpholinomethyl)benzyl)amino)-3-(4-hydroxy-2,6-dimethylphenyl)-1-oxopropan-2-aminium trifluoroacetate]
Human DOR [1]
  Selectivity MOR:DOR:KOR, DOR term (Ki DOR / Ki MOR): 1:2.0:>49
Human KOR [2]
  Selectivity MOR:DOR:KOR, KOR term (Ki KOR / Ki MOR): 1:2.0:>49
Human DOR [3]
  Efficacy (% Stimulation) DOR: did not stimulate DOR and DNS
  Potency, EC50 DOR: DNS
Human KOR [4]
  Efficacy (% Stimulation) KOR: DNS
  Potency, EC50 KOR: DNS

## CCOc1ccc(CN2CCc3ccccc3C2)cc1CNC(=O)[C@@H](N)Cc1c(C)cc(O)cc1C.O=C(O)C(F)(F)F [Compound 18, (S)-1-((5-((3,4-dihydroisoquinolin-2(1H)-yl)methyl)-2-ethoxybenzyl)amino)-3-(4-hydroxy-2,6-dimethylphenyl)-1-oxopropan-2-aminium trifluoroacetate]
Human DOR [1]
  Selectivity MOR:DOR:KOR, DOR term (Ki DOR / Ki MOR): 1:10:192
Human MOR
  MOR agonist character in words: full agonists
  Emax at 10 µM: 94.6 ± 3.9%
Human DOR [3]
  Efficacy (% Stimulation) DOR: did not stimulate DOR and DNS
  Potency, EC50 DOR: DNS
Human KOR [4]
  Efficacy (% Stimulation) KOR: DNS
  Potency, EC50 KOR: DNS

## CCOc1ccc(CN2CCCC2)cc1CNC(=O)[C@@H](N)Cc1c(C)cc(O)cc1C.O=C(O)C(F)(F)F [Compound 13, (S)-1-((2-ethoxy-5-(pyrrolidin-1-ylmethyl)benzyl)amino)-3-(4-hydroxy-2,6-dimethylphenyl)-1-oxopropan-2-aminium trifluoroacetate]
Human DOR [1]
  Selectivity MOR:DOR:KOR, DOR term (Ki DOR / Ki MOR): 1:3.0:29
Human KOR [2]
  Selectivity MOR:DOR:KOR, KOR term (Ki KOR / Ki MOR): 1:3.0:29
Male C57BL/6 mice
  antinociceptive activity in AASA (overall): inactive; also recorded: lacked antinociceptive activity

## CCOc1ccc(CNCc2ccccc2)cc1CNC(=O)[C@@H](N)Cc1c(C)cc(O)cc1C.O=C(O)C(F)(F)F [Compound 19, (S)-1-((5-((benzylamino)methyl)-2-ethoxybenzyl)amino)-3-(4-hydroxy-2,6-dimethylphenyl)-1-oxopropan-2-aminium trifluoroacetate]
Human KOR [2]
  KOR binding affinity in words: low double-digit
Human MOR
  Emax at 10 µM: 77.9 ± 3%
Human DOR [3]
  Efficacy (% Stimulation) DOR: 26.1±1.7%
  partial DOR agonist, potency in words: high
Human KOR [4]
  Efficacy (% Stimulation) KOR: >20%

## CCOc1ccc(CN2CCCCC2)cc1CNC(=O)[C@@H](N)Cc1c(C)cc(O)cc1C.O=C(O)C(F)(F)F [Compound 14, (S)-1-((2-ethoxy-5-(piperidin-1-ylmethyl)benzyl)amino)-3-(4-hydroxy-2,6-dimethylphenyl)-1-oxopropan-2-aminium trifluoroacetate]
Human DOR [1]
  Selectivity MOR:DOR:KOR, DOR term (Ki DOR / Ki MOR): 1:3.1:20
Human KOR [2]
  Selectivity MOR:DOR:KOR, KOR term (Ki KOR / Ki MOR): 1:3.1:20
Human KOR [4]
  Efficacy (% Stimulation) KOR: DNS
  Potency, EC50 KOR: DNS
Male C57BL/6 mice
  antinociceptive activity in AASA at 1 mg/kg: active antinociceptive agents
In vitro
  half-life at 1 μM: > 1 h

## CCOc1ccc(CN2CC3CC3C2)cc1CNC(=O)[C@@H](N)Cc1c(C)cc(O)cc1C.O=C(O)C(F)(F)F (stereo partly drawn) [Compound 15, (2S)-1-((5-((3-azabicyclo[3.1.0]hexan-3-yl)methyl)-2-ethoxybenzyl)amino)-3-(4-hydroxy-2,6-dimethylphenyl)-1-oxopropan-2-aminium trifluoroacetate]
Human DOR [1]
  Selectivity MOR:DOR:KOR, DOR term (Ki DOR / Ki MOR): 1:2.6:13
Human KOR [2]
  Selectivity MOR:DOR:KOR, KOR term (Ki KOR / Ki MOR): 1:2.6:13

## CCOc1ccc(C(=O)N2CCCC2)cc1CNC(=O)[C@@H](N)Cc1c(C)cc(O)cc1C.O=C(O)C(F)(F)F [Compound 21, (S)-1-((2-ethoxy-5-(pyrrolidine-1-carbonyl)benzyl)amino)-3-(4-hydroxy-2,6-dimethylphenyl)-1-oxopropan-2-aminium trifluoroacetate]
Human DOR [1]
  Selectivity MOR:DOR:KOR, DOR term (Ki DOR / Ki MOR): 1:2.2:>22
Human KOR [2]
  Selectivity MOR:DOR:KOR, KOR term (Ki KOR / Ki MOR): 1:2.2:>22
Human MOR
  Efficacy (% Stimulation) MOR: DNS
  Potency, EC50 MOR: DNS
Human DOR [3]
  Efficacy (% Stimulation) DOR: did not stimulate DOR and DNS
  Potency, EC50 DOR: DNS
Human KOR [4]
  Efficacy (% Stimulation) KOR: DNS
  Potency, EC50 KOR: DNS
